According to patent US20260200916A1, “6,6 BICYCLIC HETEROCYLES USEFUL AS INHIBITORS OF NOD-LIKE RECEPTOR PROTEIN 3” (Merck Sharp & Dohme LLC, priority 2022, published 2026):

These molecules were tested against T1, NLRP3 inflammasome (Homo sapiens, UniProt Q96P20) (assay: ASC-SPECK formation in THP-1 cells after gramicidin stimulation (NLRP3 inflammasome activation)). Conditions: PMA-treated human monocytic THP-1 cells, compound added 1 h before 12.5 ug/ml gramicidin, 3-hour treatment, ASC SPECK imaging; read-out: EC50 (nM), inhibition of NLRP3 inflammasome activation.
T1 construct: host or cells: THP-1 human monocytic cells, PMA-differentiated, gramicidin-stimulated
T1 sequence (Q96P20 whole entry): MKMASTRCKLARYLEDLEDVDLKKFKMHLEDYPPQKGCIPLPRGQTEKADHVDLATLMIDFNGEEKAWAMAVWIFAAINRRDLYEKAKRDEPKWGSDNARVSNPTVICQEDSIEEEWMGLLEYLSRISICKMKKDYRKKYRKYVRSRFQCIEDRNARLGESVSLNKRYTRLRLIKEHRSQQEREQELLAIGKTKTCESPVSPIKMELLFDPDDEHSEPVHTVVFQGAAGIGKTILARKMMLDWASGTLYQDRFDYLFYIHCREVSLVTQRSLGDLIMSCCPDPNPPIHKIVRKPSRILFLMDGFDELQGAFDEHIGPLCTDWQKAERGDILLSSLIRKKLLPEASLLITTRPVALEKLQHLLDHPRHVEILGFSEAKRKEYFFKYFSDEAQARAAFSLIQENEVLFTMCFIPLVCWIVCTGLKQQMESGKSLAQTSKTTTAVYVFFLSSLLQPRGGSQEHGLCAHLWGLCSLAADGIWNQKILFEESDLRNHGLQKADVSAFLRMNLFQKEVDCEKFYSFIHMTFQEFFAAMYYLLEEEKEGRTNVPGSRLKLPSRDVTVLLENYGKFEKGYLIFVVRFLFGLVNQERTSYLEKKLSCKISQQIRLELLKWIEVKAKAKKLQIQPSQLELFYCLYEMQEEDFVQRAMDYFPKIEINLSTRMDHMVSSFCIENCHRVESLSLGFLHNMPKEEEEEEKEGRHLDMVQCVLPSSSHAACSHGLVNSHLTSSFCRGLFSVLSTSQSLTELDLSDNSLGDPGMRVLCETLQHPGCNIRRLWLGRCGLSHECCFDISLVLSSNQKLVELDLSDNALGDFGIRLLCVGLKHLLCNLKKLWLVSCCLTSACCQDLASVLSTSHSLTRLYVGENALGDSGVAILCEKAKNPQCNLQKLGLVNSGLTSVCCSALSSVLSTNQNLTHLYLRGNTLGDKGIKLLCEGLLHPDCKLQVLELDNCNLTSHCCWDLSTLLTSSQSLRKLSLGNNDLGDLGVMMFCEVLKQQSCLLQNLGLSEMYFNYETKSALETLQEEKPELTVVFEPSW
Format: cell-based
Method: The ability of compounds to inhibit NLRP3 inflammasome activation was determined in vitro by monitoring formation of the ASC-SPECK in human monocytic THP-1 cells after stimulation. THP-1 cells (ATCC catalog #TIB-202) were maintained in complete growth media containing Roswell Park Memorial Institute RPMI (ATCC catalog #30-2001), 10% heat inactivated fetal bovine serum, 1× penicillin/streptomycin and 0.05 mM 2-mercaptoethanol. At the start of the assay, undifferentiated THP-1 cells were plated at a density of 20,000 cells per well in a 384-well plate (Poly-D-lysine coated Cell Carrier Ultra microplate, Perkin Elmer catalog #6057500) in complete growth media supplemented with 10 ng/ml phorbol 12-myristate 13-acetate (PMA; Sigma catalog #P8139), and then incubated overnight. The next day, media was replaced with assay media [RPMI (Gibco catalog #11875-093), 0.01% bovine serum albumin (BSA)]. Compounds were serially diluted in DMSO and then added to wells one hour prior to the addition of 12.5 ug/ml Gramicidin (Enzo Lifescience, catalog #ALX-350-233-M005). All incubations were carried out at 37° C. (5% C02/95% air). Following a 3-hour treatment with gramicidin, cells are fixed with 4% paraformaldehyde and stored at 4° C. until immunofluorescence staining.
Immunofluorescence staining: Anti-ASC antibody (MBL catalog #D086-3) was desalted and labeled with Alexa 488 antibody labeling kit (Thermo catalog #A20181) prior to use as described below. After fixation, the following steps were carried out at room temperature. Cells were first permeabilized with 0.3% Triton X-100 in phosphate-buffered saline (PBS) for 15 minutes and then incubated in blocking buffer containing 5% goat serum, 0.3% tween-20 and 0.03% sodium azide in PBS for 1 hour. Cells were stained with a mixture of ASC-Alexa 488 antibody (diluted 1:200 in blocking buffer) and nuclear stain DRAQ5 (1:5000 in blocking buffer, Thermo catalog #62251) in blocking buffer for 1 hour. Following a wash with 0.3% Tween-20 in PBS, plates were imaged with an Opera Phenix High Content Screening System. The number of DRAQ5 positive cells containing ASC SPECKS were quantified in each well.
Data analysis: EC50 values were calculated by standard curve-fitting analysis using an internally developed program in TIBCO Spotfire software.

Row | SMILES | EC50 [nM]
1 | Cc1cc(C(F)(F)F)cc(O)c1-c1cc2c(nn1)N(C13CCCC(O)(C1)C3)CCC2 [Example 3, 5-(3-(2-hydroxy-6-methyl-4-(trifluoromethyl)phenyl)-6,7-dihydropyrido[2,3-c]pyridazin-8(5H)-yl)bicyclo[3.1.1]heptan-1-ol] | 125
2 | Cc1cc(C(F)(F)F)cc(O)c1-c1cc2c(nn1)N(C[C@@H]1C[C@H](F)CN1)CCC2 [Example 7, 2-(8-(((2S,4S)-4-fluoropyrrolidin-2-yl)methyl)-5,6,7,8-tetrahydropyrido[2,3-c]pyridazin-3-yl)-3-methyl-5-(trifluoromethyl)phenol] | 240
3 | CCN1CCC[C@@H](N2CCCc3c2nnc(-c2ccc(C(F)(F)F)cc2O)c3C)C1 [Example 9, (R)-2-(8-(1-ethylpiperidin-3-yl)-4-methyl-5,6,7,8-tetrahydropyrido[2,3-c]pyridazin-3-yl)-5-(trifluoromethyl)phenol] | 48
4 | CCN1CCC[C@@H](N2CCCc3c2nnc(-c2ccc(C(F)(F)F)cc2OC(F)F)c3C)C1 [Example 10, (R)-3-(2-(difluoromethoxy)-4-(trifluoromethyl)phenyl)-8-(1-ethylpiperidin-3-yl)-4-methyl-5,6,7,8-tetrahydropyrido[2,3-c]pyridazine] | 380
5 | CCN1CCC[C@@H](N2CCCc3c2nnc(-c2ccc(C(F)(F)F)nc2OC(F)F)c3C)C1 [Example 11, (R)-3-(2-(difluoromethoxy)-6-(trifluoromethyl)pyridin-3-yl)-8-(1-ethylpiperidin-3-yl)-4-methyl-5,6,7,8-tetrahydropyrido[2,3-c]pyridazine] | 1070
6 | CCN1CCC[C@@H](N2CCCc3c2nnc(-c2ccc4occc4c2)c3C)C1 [Example 12, (R)-3-(benzofuran-5-yl)-8-(1-ethylpiperidin-3-yl)-4-methyl-5,6,7,8-tetrahydropyrido[2,3-c]pyridazine] | 253
7 | CCC(=O)N1C[C@H](F)C[C@H]1CN1CCCc2cc(-c3c(C)cc(C(F)(F)F)cc3O)nnc21 [Example 18, 1-((2S,4R)-4-fluoro-2-((3-(2-hydroxy-6-methyl-4-(trifluoromethyl)phenyl)-6,7-dihydropyrido[2,3-c]pyridazin-8(5H)-yl)methyl)pyrrolidin-1-yl)propan-1-one] | 204
8 | Cc1cc(C(F)(F)F)cc(O)c1-c1cc2c(nn1)N(C[C@@H]1C[C@@H](F)CN1C(=O)C1CC1)CCC2 [Example 19, cyclopropyl((2S,4R)-4-fluoro-2-((3-(2-hydroxy-6-methyl-4-(trifluoromethyl)phenyl)-6,7-dihydropyrido[2,3-c]pyridazin-8(5H)-yl)methyl)pyrrolidin-1-yl)methanone] | 431
9 | Cc1cc(C(F)(F)F)cc(O)c1-c1cc2c(nn1)N(C[C@@H]1C[C@@H](F)CN1C(=O)C1CCC1)CCC2 [Example 20, cyclobutyl((2S,4R)-4-fluoro-2-((3-(2-hydroxy-6-methyl-4-(trifluoromethyl)phenyl)-6,7-dihydropyrido[2,3-c]pyridazin-8(5H)-yl)methyl)pyrrolidin-1-yl)methanone] | 874
10 | Cc1cc(C(F)(F)F)cc(O)c1-c1cc2c(nn1)N(C[C@@H]1C[C@@H](F)CN1S(C)(=O)=O)CCC2 [Example 21, 2-(8-(((2S,4R)-4-fluoro-1-(methylsulfonyl)pyrrolidin-2-yl)methyl)-5,6,7,8-tetrahydropyrido[2,3-c]pyridazin-3-yl)-3-methyl-5-(trifluoromethyl)phenol] | 351
11 | Cc1cc(C(F)(F)F)cc(O)c1-c1cc2c(nn1)N(C[C@@H]1C[C@H](F)CN1S(C)(=O)=O)CCC2 [Example 22, 2-(8-(((2S,4S)-4-fluoro-1-(methylsulfonyl)pyrrolidin-2-yl)methyl)-5,6,7,8-tetrahydropyrido[2,3-c]pyridazin-3-yl)-3-methyl-5-(trifluoromethyl)phenol] | 784

Second part, the molecule after the results:

Row | EC50 [nM] | SMILES
12 | 1430 | Cc1cc(C(F)(F)F)cc(O)c1-c1cc2c(nn1)N(C1CC(C)(C)C1O)CCC2 (single isomer, unassigned) [Example 5, 2-(8-((1S,2R or 1R,2S)-2-hydroxy-3,3-dimethylcyclobutyl)-5,6,7,8-tetrahydropyrido[2,3-c]pyridazin-3-yl)-3-methyl-5-(trifluoromethyl)phenol]
13 | 118 | Cc1cc(C(F)(F)F)cc(O)c1-c1cc2c(nn1)N(C1CC(C)(C)C1O)CCC2 (single isomer, unassigned) [Example 6, 2-(8-((1R,2S or 1S,2R)-2-hydroxy-3,3-dimethylcyclobutyl)-5,6,7,8-tetrahydropyrido[2,3-c]pyridazin-3-yl)-3-methyl-5-(trifluoromethyl)phenol]
14 | 42 | Cc1cc(C(F)(F)F)cc(O)c1-c1cc2c(nn1)N([C@H]1C[C@@](C)(O)C1)CCC2 [Example 1, 2-(8-((1s,3s)-3-hydroxy-3-methylcyclobutyl)-5,6,7,8-tetrahydropyrido[2,3-c]pyridazin-3-yl)-3-methyl-5-(trifluoromethyl)phenol]
15 | 5 | CCN1CCC[C@@H](N2CCCc3cc(-c4c(C)cc(C(F)(F)F)cc4O)nnc32)C1 [Example 2, (R)-2-(8-(1-ethylpiperidin-3-yl)-5,6,7,8-tetrahydropyrido[2,3-c]pyridazin-3-yl)-3-methyl-5-(trifluoromethyl)phenol]
16 | 157 | Cc1cc(C(F)(F)F)cc(O)c1-c1cc2c(nn1)N([C@@H]1CCCC[C@H]1O)CCC2 [Example 4, 2-(8-((1R,2R)-2-hydroxycyclohexyl)-5,6,7,8-tetrahydropyrido[2,3-c]pyridazin-3-yl)-3-methyl-5-(trifluoromethyl)phenol]
17 | 285 | Cc1cc(C(F)(F)F)cc(O)c1-c1cc2c(nn1)N([C@H]1C[C@@](C)(O)C1)C[C@H](N)C2 [Example 8, 2-((R)-6-amino-8-((1s,3S)-3-hydroxy-3-methylcyclobutyl)-5,6,7,8-tetrahydropyrido[2,3-c]pyridazin-3-yl)-3-methyl-5-(trifluoromethyl)phenol]
18 | 629 | Cc1cc(C(F)(F)F)cc(O)c1-c1cc2c(nn1)N(C[C@@H]1C[C@H](F)CN1C)CCC2 [Example 13, 2-(8-(((2S,4S)-4-fluoro-1-methylpyrrolidin-2-yl)methyl)-5,6,7,8-tetrahydropyrido[2,3-c]pyridazin-3-yl)-3-methyl-5-(trifluoromethyl)phenol]
19 | 27 | Cc1cc(C(F)(F)F)cc(O)c1-c1cc2c(nn1)N([C@H]1CN(C)CC[C@H]1O)CCC2 [Example 14, (3S,4R)-3-(3-(2-hydroxy-6-methyl-4-(trifluoromethyl)phenyl)-6,7-dihydropyrido[2,3-c]pyridazin-8(5H)-yl)-1-methylpiperidin-4-ol]
20 | 692 | CCN1C[C@@H](F)C[C@H]1CN1CCCc2cc(-c3c(C)cc(C(F)(F)F)cc3O)nnc21 [Example 15, 2-(8-(((2S,4S)-1-ethyl-4-fluoropyrrolidin-2-yl)methyl)-5,6,7,8-tetrahydropyrido[2,3-c]pyridazin-3-yl)-3-methyl-5-(trifluoromethyl)phenol]
21 | 317 | CC(=O)N1C[C@H](F)C[C@H]1CN1CCCc2cc(-c3c(C)cc(C(F)(F)F)cc3O)nnc21 [Example 16, 1-((2S,4R)-4-fluoro-2-((3-(2-hydroxy-6-methyl-4-(trifluoromethyl)phenyl)-6,7-dihydropyrido[2,3-c]pyridazin-8(5H)-yl)methyl)pyrrolidin-1-yl)ethan-1-one]
22 | 597 | CC(=O)N1C[C@@H](F)C[C@H]1CN1CCCc2cc(-c3c(C)cc(C(F)(F)F)cc3O)nnc21 [Example 17, 1-((2S,4S)-4-fluoro-2-((3-(2-hydroxy-6-methyl-4-(trifluoromethyl)phenyl)-6,7-dihydropyrido[2,3-c]pyridazin-8(5H)-yl)methyl)pyrrolidin-1-yl)ethan-1-one]
